Results on 8 molecules are retold here after patent publication US6649797B2, “Compounds and methods of use to treat infectious diseases” (The Picower Institute for Medical Research, priority 1996, dated 2003).

Broadly, the AUC is concentration integrated over time. The Cmax is the peak of the concentration-time curve. In general, Tmax refers to the time at which the peak concentration occurs. A word on the LD50: it is the dose at which mortality reaches 50%. One may read the IC50 as the point on the concentration scale where inhibition reaches its midpoint.

Data set [1] deals with HIV-1. Briefly: HIV-1 production in cultured monocytes at fixed 100 nM. The data set is classed as cell-based. The following applies: monocytes infected 10 days prior to assay (10 ng p24/10^6 cells), percentage of untreated control. The protocol:
Alternatively, the compounds may all be compared for inhibition of HIV replication at a fixed concentration. Presented in Table II are compounds that were used at a concentration of 100 nM to inhibit the production of HIV-1 in cultured monocytes infected with HIV-1 10 days prior to assay (10 ng of p24/10^6 cells). The production of HIV-1 in each treated culture is reported as percentage of untreated control.

Data set [2] has as its system HIV-1. Briefly: AZT and Compound No. 2 in combination, HIV-1 infected monocyte cultures, RT activity. Format: cell-based. The following applies: for reverse transcriptase activity in supernatant: (−) No. 2. The protocol: Primary human monocytes were obtained from peripheral blood by Ficoll-Hypaque centrifugation and adherence to plastic as described previously. Gartner S. P., et al., 1986, Science 233:215. Briefly, after Ficoll-Hypaque (Pharmacia) separation, PBMCs were washed 4 times with DMEM (the last wash was done at 800 rpm to remove platelets) and resuspended in monocyte culture medium [DMEM supplemented with 1 mM glutamine, 10% heat-inactivated human serum, 1% penicillin+streptomycin mixture (Sigma)] at a density of 6×10^6 cells/ml. Cells were seeded in 24-well plates (1 ml per well) and incubated for 2 h at 37° C, 5% CO2. Following incubation, cells were washed 3 times with DMEM to remove non-adherent cells and incubation was continued in monocyte culture medium supplemented with 250 U/ml human M-CSF (Sigma). Cells were allowed to mature for 7 days prior to infection with the monocyte-tropic strain, HIV-1ADA. Nuovo, G. J., et al., 1992, Diagn. Mol. Pathol. 1:98. Two hours after infection, cells were washed with medium and cultured in RPMI supplemented with 10% human serum. In experiments where PCR analysis was performed, virus was pretreated with RNAse-free DNAse (Boehinger-Mannheim) for 2 h at room temperature and then filtered though a 0.2 μm pore nitrocellulose filter prior to infection.
For the reverse transcriptase (RT) assay, 10 μl of culture supernatant was added to 40 μl of reaction mixture (final composition was 50 mM Tris-HCl, pH 7.8; 20 MM KCl; 5 MM MgCl2; 1 mM DTT; 0.1% Triton X-100; 0.2 OD/ml polyA; 0.2 OD/ml oligo(dT)12-18; and 40 μCi/ml ^3H-dTTP (76 Ci/mmol, DuPont) and incubated 2 hr at 37° C. 5 μl of the reaction mixture was then spotted onto the DE 81 (Whatman) paper. Paper was air dried and washed 5 times with 5% Na2HPO4, followed by rinsing with distilled water. After air drying, paper was put on a Flexi Filter plate (Packard), covered with scintillation fluid and counted in a Top Count Microplate Counter (Packard). Results are expressed as counts per minute in 1 ml of supernatant (cpm/ml).
In view of these premises, the effects on HIV-1 replication in human monocyte cultures of the various concentrations of AZT, alone or in combination with 100 nM Compound No. 2, were tested using the protocols of Sections 6.2.1 and 6.2.2. Drugs were added to the monocyte cultures together with HIV-1 at about 10^5 TCID/ml. The concentration of drugs was maintained on refeeding. HIV-1 replication was assessed by assay of the supernatant for reverse transcriptase activity. The results are expressed as mean ± std. dev. (cpm×10^−3) in Table V.

A short description of data set [3]: Pharmacokinetics in mice (plasma, HPLC). Format: in vivo, mouse.
Procedure: Standard addition curves for each test compound were constructed by adding increased amounts of drug to mouse or human A^+ plasma (Long Island Blood Services; Melville, N.Y). […] The column was washed with 1.0 ml of water and then eluted with 1.0 ml of 10 mM tetramethylammonium chloride/10 mM heptane sulfonate/4.2 mM H3PO4/95% CH3CN/5% H2O (Buffer C). The eluted sample was reduced to dryness in a rotary evaporator and resuspended in 1.0 ml Buffer A.
Two hundred μl of the resuspended sample was injected onto a Hewlett-Packard model 1090 high performance liquid chromatography system (HPLC)(Wilmington, Del.) equipped with a photodiode array ultraviolet/visible spectrophotometric detector, autosampler, and Chemstation operating software. The column used was a 250×4.6 mm Zorbax RX-C8 column (Mac-Mod Analyticals; Chadd's Ford, Pa.) kept at room temperature and run at 1.5 ml/min. The mobile phase used was Buffer A and 10 mM tetramethylammonium chloride/10 mM heptane sulfonate/4.2 mM H3PO4/75% CH3CN/25% H2O (Buffer B), with all runs initiated at 10% Buffer B. A linear 30 min gradient to 60% Buffer B was then performed, followed by a 4 min reverse gradient to initial conditions.
Female ND4 Swiss Webster mice (21-24 g) were obtained from Harlan Sprague Dawley (Indianapolis, Ind.) and randomly placed in groups of five in cages with free access to food and water. […] The other CNI compounds were administered intraperitoneally or by oral gavage as a solution in water titrated with sufficient HCl to dissolve the drug. At various time points, ranging from 5 min to 4 days, a single group of animals was euthanized by carbon dioxide inhalation and bled by cardiac puncture using heparin as an anticoagulant. The blood from the five mice in the group was pooled and centrifuged at 14000× g for 10 min. The volume of plasma was measured, and equal volume of Buffer A added, and the mixture extracted and analyzed as described above, except that the dried eluates were resuspended in 200 μl Buffer A and 100 μl was injected onto the high performance liquid chromatography (HPLC) system.
The area under the plasma concentration-time curve (AUC) was determined, and bioavailability was measured as AUCoral/AUCi.p. A and B represent the zero time intercept of the distribution and elimination phases respectively, and a and β the respective slopes of the phases multiplied by 2.303. The t/2α and t1/2β are calculated half-lives of the drug in each phase (0.693/α and 0.693/β respectively). The volume of distribution (VD) was calculated as dose/B, and the total clearance rate (Cltot) calculated as β*VD. Cmax and tmax are the maximal plasma concentration and time of this measurement, respectively.
Data set [4] in a line: Toxicity in mice, median lethal dose by intraperitoneal injection. The note with it: for LD50: mouse, in vivo, ip, read-out: LD50 ± standard deviation. The data set is classed as in vivo, mouse. The protocol:
The doses of compounds of the invention found to be lethal to 50% of the mice (LD50) were determined by intraperitoneal injection of groups of five animals with increasing doses of each compound. CNI-0294 was administered from 0, 2, 10, 20, 40, 80, 160, 320, 640, 1280 mg/kg in 0.5 ml of water/HCl; CNI-1594 at 0, 2.4, 5, 10, 20, 40, 80 mg/kg in 0.5 ml of water/HCl; CNI-1794 at 0, 20, 50, 80 mg/kg in 0.5 ml of water/HCl; and CNI-1894 at 0, 10, 20, 40, 80, 240, 480, 960 mg/kg in water/HCl. […] The percentage of animals in each group which died were utilized to calculate the LD50 by non-linear curve fitting with the Enzfit software (Elsevier Bioscience; Cambridge, UK) programmed with the Chou equation (Chou 1976, J Theor Biol 39:253-276)).

The nature of data set [5]: In vitro metabolism with mouse liver post-mitochondrial supernatant and NADPH. The data set is classed as in vitro ADME. Here is the method:
Several female ND4 Swiss Webster mice were euthanized by carbon dioxide inhalation and the livers excised and rinsed with ice cold phosphate buffered saline (pH 7.4). The livers were minced, gently homogenized in 50 mM phosphate buffer (pH 7.4) with a Dounce homogenizer, and centrifuged at 9600× g for 20 min. The post-mitochondrial supernatant was kept, glycerol added to 20%, and frozen at −70° C in 1.0 ml aliquots until used. For each incubation, 1.0 ml of a 1.0 mg/ml drug solution was added to 3.0 ml of 50 mM phosphate buffer (pH 7.4), 1.0 ml of 2 mg/ml NADPH in 50 mM phosphate (pH 7.4), and 1.0 ml of the post-mitochondrial supernatant. Five hundred μl of each incubate was then immediately transferred to an ice-cold tube to provide the zero-time sample, and addition 500 μl aliquots removed to ice-cold tubes at 8, 15, 30, and 60 min. The samples were then extracted, and analyzed by HPLC as described in section 7.1. Control incubations were also performed where drug or post-10 mitochondrial supernatant was omitted. […] Peaks in the CNI compound incubations which increased over time, and were not present in control samples lacking the enzyme preparation were treated as putative metabolites.

A further data set relates to Plasmodium falciparum. In words: Antimalarial activity in vitro, [3H]-hypoxanthine incorporation. Format: cell-based. The following applies: for IC50: Plasmodium falciparum. The source says:
The antimalarial properties of the compounds of the invention can be analyzed by techniques, assays and experimental animal models well known in the art. For example, the inhibition of growth of Plasmodium falciparum in vitro by the compounds may be assessed by the hypoxanthine-incorporation method (Desjardins et al., 1979, Antimicrob. Ag. Chemother. 16:710-718). […] The in vivo efficacy of the compounds can also be tested in mouse models in which parasitemia is enumerated following administration of the compound (Ager, A. L. 1984, Rodent malaria models, pp 225-264. In Handbook of Experimental Pharmacology vol. 68, Antimalarial Drugs, Peters and Richards eds, Springer-Verlag, Berlin).
The antimalarial activity of the compounds was determined essentially as described in Desjardins et al. supra. Fifty μl of various concentrations of a compound of the invention, chloroquine, or pyrimethamine were added to the wells of microtiter plates, followed by 200 μl of ring-stage, synchronized, P. falciparum-infected erythrocytes (final hematocrit=1.5%, final parasitemia=1-5%). The plates were incubated for 24 hr in a candle jar kept at 37° C., and then 25 μl of [^3H]-hypoxanthine (Amersham, Arlington Heights, ILL.; 2.5 μl Ci/well) was added. The plates were then incubated for a further 24 hr, before harvesting onto Unifilter-96 GF/C filter-microplates (Packard; Meriden, Conn.). Twenty-five μl of Microscint scintillation fluid (Packard) was added to each well of the filter-microplate, which was subsequently counted in a Top-count microplate scintillation counter (Packard). The percent of [^3H]-hypoxanthine uptake relative to control infect-erythrocytes was used to determine the IC50 value for the compounds by non-linear regression for LD50 determination.

In another data set the test system is HIV-1ADA. Briefly: Anti-HIV activity in primary human monocytes, day 9 (Table IX, FIG. 12C). The data set is classed as cell-based. The note with it: Human immunodeficiency virus 1, Monocyte, 216 h; day 9 after infection; >10 μM = 50% inhibition not achieved at maximal concentration; read-out: IC50. The protocol: Monocytes infected with HIV-1ADA were cultured in the presence of CNI-H0294 and CNI-H3094 in various concentrations. Nine days after infection, RT activity in culture supernatants was quantified. The results are presented as percent of total RT activity in untreated cultures (control). Three independent samples were assayed for each drug concentration, and the standard deviation was less than 15%.
[…] A 50% inhibitory concentration (IC50) was determined at day 9 after infection.

The mark [6] stands for this setting: female, ND4 Swiss Webster, mouse, plasma, ip, 50 mg/kg, vehicle water.
[7] abbreviates: mouse, i.p., 50 mg/kg, vehicle water.

Each structure is given as a SMILES string. Read-outs that look alike come from different tables or passages of the source. Some results are limits rather than exact numbers.

For `CC(=O)c1cccc(C(C)=O)c1N` [2,6-diacetylaniline], the “Viral Production” value in the data set with HIV-1 [1] was determined as 28%.

Take `CC(=O)c1cncc(C(C)=O)c1` [3,5-diacetylpyridine]: in the data set with HIV-1 [1], the “Viral Production” value amounted to 58%.

Regarding `Cc1cn([C@H]2C[C@H](N=[N+]=[N-])[C@@H](CO)O2)c(=O)[nH]c1=O` [AZT], the “reverse transcriptase activity in supernatant” value in the data set on HIV-1 [2] (day-7, 10 pM AZT, mean ± std. dev.) amounted to 0.92 ± 0.21 cpm×10^−3; in the data set on HIV-1 [2] (day-7, 100 pM AZT), 0.79 ± 0.14 cpm×10^−3; in the data set with HIV-1 [2] (day-7, 1 nM AZT), 0.60 ± 0.28 cpm×10^−3; with HIV-1 [2] (day-7, 10 nM AZT), 0.05 ± 0.02 cpm×10^−3; with HIV-1 [2] (day-11, 10 pM AZT) it was 1.63 ± 0.81 cpm×10^−3; in the data set on HIV-1 [2] (day-11, 100 pM AZT), 1.34 ± 0.59 cpm×10^−3. In addition, the “reverse transcriptase activity in supernatant” value is 1.07 ± 0.49 cpm×10^−3 with HIV-1 [2] (day-11, 1 nM AZT) and 0.08 ± 0.03 cpm×10^−3 with HIV-1 [2] (day-11, 10 nM AZT). The “reduction in RT activity” value with HIV-1 [2] (day-11, 10 pM AZT alone) was “about 20%”.

Turning to `CC(=O)c1cc(N)cc(C(C)=O)c1` [CNI-1894, 3,5-diacetylaniline], the “Viral Production” value in the data set with HIV-1 [1] is listed as 20%. Besides, in data set [3] (setting [6]), the AUC amounted to 20200 ng·h/mL and the peak level (Cmax) was 13400 ng/mL. The Tmax in data set [3] (female, ND4 Swiss Webster, plasma, ip, mouse, i.p., 50 mg/kg, vehicle water, read-out: tmax (converted)) was 5 min. Also, the maximal plasma level in data set [3] (mice, single i.p. injection (50 mg/kg; CNI-1594 20 mg/kg)) turned out to be 13.43 µg/mL. For the same molecule, in data set [3] (setting [7]), the “A (zero time intercept of the distribution phase)” value amounted to 14.93 µg/mL, the “B (zero time intercept of the elimination phase)” value came to 0.15 µg/mL, the Cltot was 3.30 mL/min and the t1/2α turned out to be 34.8 min. In data set [3] (setting [7]), the t1/2β amounted to 1386 min, the α was found to be 1.19 h⁻¹ and the β was 0.03 h⁻¹. Besides, in data set [4], the “visible signs of toxicity” value is “died 2-3 days post injection, and showed no sign of any immediate toxicity”; the LD50 is 258.6 ± 1.37 mg/kg. Further, in data set [5], the metabolites produced result is “one minor and one major metabolite”. The “metabolic conversion (drug altered, as judged by peak area)” value in data set [5] (60 min incubation) was 17.28%. Further, the antimalarial activity entry in the data set on Plasmodium falciparum (clone Dd2, highest concentration tested 200 μM) is “inactive at the highest concentration tested”. The IC50 in the data set on HIV-1ADA is above 10000 nM.

For `CCN(CC)CCCC(C)Nc1ccnc2cc(Cl)ccc12` (centres unmarked) [Chloroquine], the IC50 in the data set with Plasmodium falciparum (DD2, clone Dd2, Chloroquine column, unit inferred) came to 123 ± 7.26 nM; in the data set with Plasmodium falciparum (FCR3, clone FCR-3, Chloroquine column, unit inferred) it was 105 ± 9.98 nM; with Plasmodium falciparum (HB3, clone HB3, Chloroquine column, unit inferred), 6.73 ± 0.16 nM; with Plasmodium falciparum (clone D10, Chloroquine column, unit inferred), 27 ± 2.42 nM; in the data set on Plasmodium falciparum (clone W2mef, Chloroquine column, unit inferred), 144 ± 13.3 nM.

With `CC(=O)c1ccc(Nc2cc(C)nc(N)n2)cc1` [Compound No. 17, 2-amino-4-(4-acetylphenyl)amino-6-methylpyrimidine], the LD50 in data set [4] worked out at 48.93 ± 0.12 mg/kg.

For the molecule `CC(=O)c1cc(C(C)=O)cc(N(C)C)c1` [N,N-dimethyl-3,5-diacetylaniline], the “Viral Production” value in the data set on HIV-1 [1] worked out at 25%.

For `CCc1nc(N)nc(N)c1-c1ccc(Cl)cc1` [Pyrimethamine], the IC50 in the data set on Plasmodium falciparum (DD2, clone Dd2, ± standard deviation, read-out: IC50) came out at 104000 ± 9790 nM; with Plasmodium falciparum (clone W2mef, ± standard deviation, read-out: IC50) it was 17800 ± 13500 nM.
